Source: patent publication US20170368082A1, “FORMULATIONS OF BRINCIDOFOVIR” (priority 2016, published 2017)

How the values were obtained:
[1] = Stability study I (with dextrose): accelerated stability study; assay type: physicochemical
Procedure: Testing of the chemical degradation was performed in an accelerated stability study setup applying heat as an accelerator/stressor. An Arrhenius analysis was carried out providing an API half-life and a degradation rate at lower temperatures. Physical stability was evaluated at the desired storage temperature (2-8° C.); a benchmark/reference condition was likewise included in the study. The setup of the study is specified below:
Accelerated stability study: 50° C., 60° C., 65° C., 70° C., 75° C.,
Accelerated stability study: initial, 2, 6, 9, 14 days,
appearance, pH, c(BCV) recovery (HPLC), purity (HPLC), and liquid particle counting (physical degradation and benchmark stability study),
The stability testing results (accelerated conditions), i.e., the changes of pH and trends of brincidofovir recovery over the course of the stability study are summarized in Table 8 and Table 9 for the formulations at 10 mg/mL and 15 mg/mL respectively.

[2] = Drug product vial and stopper compatibility; assay type: physicochemical
Procedure: Formulations of the disclosure were evaluated for […]. The testing formulation (5 mL, 10 mg/mL brincidofovir, 200 mM sodium phosphate, pH=8.0) was dispensed into a set of Afton sterilized, Ready-To-Fill® vials. The vials were stoppered with West NovaPure® stoppers and crimped with Afton Ready-To-Fill® sterilized seals, and stored for 6 hours at ambient conditions in upright and inverted orientations. Samples of the filling solution were collected before filling and after 6 hours of storage under the respective condition. The collected samples were assessed for their appearance, pH, and c(BCV). […] No additional impurity was introduced following contact.
The vials used for testing were clear, 20 mL, Class A borosilicate glass serum vials, and the stoppers were 20 mm Novapure® stoppers, with FluroTec® coating.

[3] = pH stability of brincidofovir stock solutions (50 μg/mL, 50 mM phosphate pH 6.0-8.0, 20% methanol); assay type: physicochemical
Procedure: Brincidofovir sample stock solutions (50 μg/mL) were prepared in 50 mM phosphate buffer at pH 6.0-8.0 containing 20% methanol. The samples were aliquoted and stored at two temperatures (T=2-8° C. and T=40° C.), and monitored for pH and recovery of brincidofovir at multiple time points over the course of two weeks. Under both conditions, the samples maintained the pH level throughout the time course of the experiment.
The decrease may be related to the observed precipitation. Variation for pH 7.0 is observed for t>8 days. One impurity (RT=4.7 min) was detected that exceeded the set total peak area threshold that was applied for peak integration. The percent of the total peak area was below 0.4% for samples at pH 6 and 6.5, and below 0.1% for samples at higher pH.
For the samples at lower pH, a peak associated with the deamination product of brincidofovir, was observed, encompassing an area % of 1.91 at pH 6.0, and 0.58 at pH 6.5. The degradants peak is not observed at neutral pH and above.

rat whole blood = experiment: Hemolytic potential, cyanmethemoglobin method, rat whole blood; assay type: cell-based; details: for Estimated % Hemolysis: based on normal rat hemoglobin 13 g/dL; for Mean HgB Concentration: interference control, Phase 1
Procedure: Each concentration of test item for the rat was mixed separately in a 1:4 ratio with rat whole blood while each concentration of test item for the human was mixed separately in a 1:4 ratio with human whole blood. These samples plus control samples [vehicle control (vehicle+whole blood, 1 for rat and 1 for humans), positive control (1% Saponin+whole blood), untreated whole blood control and negative control (saline+whole blood) were analyzed for hemolysis (supernatant hemoglobin concentration).
(§1) The rat and human whole blood samples were incubated in test or control items at 37±1° C. for 20 minutes and then immediately (within 2 minutes) centrifuged at 3500±100 rpm (2740 g) at room temperature for 5-10 minutes. The supernatant was extracted and subjected to a hemoglobin analysis using the cyanmethemoglobin method employed on the Siemens Advia 120 hematology analyzer. If the test item has a potential for causing hemolysis, then hemoglobin released from lysed red blood cells into the plasma supernatant can be quantified via the reaction of heme iron in solution being oxidized from a ferrous to a ferric state in the presence of potassium cyanide. The reaction results in the formation of methemoglobin, which then combines with cyanide to form a stable cyanmethemoglobin. When measured spectrophotometrically at 546 nm the absorbance of cyanmethemoglobin follows Beer's Law and is directly proportional to the concentration of hemoglobin released into solution.
as §1, with “Without wishing to be bound by theory, if” for “If”

SMILES: CCCCCCCCCCCCCCCCOCCCOP(=O)(O)CO[C@H](CO)Cn1ccc(N)nc1=O [Brincidofovir]
- Degradation of brincidofovir over two weeks ([1]; 50 °C): 16%
- Degradation of brincidofovir over two weeks ([1]; 75 °C): 22%
- Impurities ([1]; 75 °C station, both starting concentrations): up to 16%
- Appearance ([2]; Inverted, 6 h): Clear, colorless
- Measured pH ([2]; Inverted, 6 h): 8.0
- Observed c(BCV) ([2]; Inverted, 6 h): 9.4 mg/mL
- Appearance ([2]; Pre filling): Clear, colorless
- Measured pH ([2]; Pre filling): 8.0
- Observed c(BCV) ([2]; Pre filling): 9.5 mg/mL
- Appearance ([2]; Upright, 6 h): Clear, colorless
- Measured pH ([2]; Upright, 6 h): 8.0
- Observed c(BCV) ([2]; Upright, 6 h): 9.5 mg/mL
- Impurity (RT=4.7 min), percent of total peak area ([3]; 2-8 °C, higher pH): below 0.1%
- Time at which precipitation was observed ([3]; 2-8 °C, pH 6.0): 2 days
- Impurity (RT=4.7 min), percent of total peak area ([3]; 2-8 °C, pH 6 and 6.5): below 0.4%
- Time at which precipitation was observed ([3]; 2-8 °C, pH 6.5): 2 days
- Time at which precipitation was observed ([3]; 2-8 °C, pH 7.0): 4 days
- Appearance ([3]; 2-8 °C, pH 7.5 and pH 8.0, two weeks): no observable change in appearance
- Appearance ([3]; 40 °C, any pH): no physical change in appearance
- Deamination product peak area % ([3]; 40 °C, pH 6.0): 1.91%
- Deamination product peak area % ([3]; 40 °C, pH 6.5): 0.58%
- Brincidofovir concentration with in vitro evidence of hemolysis (rat whole blood): above 0.75 mg/mL
- Hemolysis classification (rat whole blood; 0.2 mg/mL): non-hemolytic (Formulations with a hemolysis value of <10% are considered to be non-hemolytic)
- Calculated % hemolysis (rat whole blood; 0.5 mg/mL ([…])): 2.4%
- Calculated % hemolysis (rat whole blood; 1.6 mg/mL ([…])): 13.0%
- Hemolysis classification (rat whole blood; 0.5 and 1.6 mg/mL): not considered a hemolytic risk
- Estimated % Hemolysis (rat whole blood; Tube 1B: Test Item (0.5 mg/mL) + rat whole blood): 2.4%
- Estimated % Hemolysis (rat whole blood; Tube 1C: Test Item (1.6 mg/mL) + rat whole blood): 13.0%
- Mean HgB Concentration (rat whole blood; Tube 2A: Test Item (0.2 mg/mL) + saline): 0.0 g/dL
- Mean HgB Concentration (rat whole blood; Tube 2B: Test Item (0.5 mg/mL) + saline): 0.0 g/dL
- Mean HgB Concentration (rat whole blood; Tube 2C: Test Item (1.6 mg/mL) + saline): 0.0 g/dL
